These results are taken from patent US9573930B2 (Quanticel Pharmaceuticals, Inc., priority 2014, dated 2017).

The assay addresses full-length human LSD1 (Homo sapiens (Human), UniProt O60341). As to the kind of experiment: In vitro enzyme inhibition assay LSD-1 (TR-FRET). The assay is classed as biochemical. To be noted: H3K4me1-biotin peptide. The method, then: This assay determines the ability of a test compound to inhibit LSD1 demethylase activity.
The enzymatic assay of LSD1 activity is based on Time Resolved-Fluorescence Resonance Energy Transfer (TR-FRET) detection.
The ability of the compounds disclosed herein to inhibit LSD1 activity was quantified and the respective IC50 value was determined.
(In general: TR-FRET usually uses a lanthanide donor and a delayed reading to cut background.)

Some results are limits rather than exact numbers.

For `Cn1c(N2CCC(N)CC2)nc(-c2ccc(C#N)c(F)c2)c(-c2ccc(C(=O)O)cc2)c1=O` [Example 39, 4-[2-(4-aminopiperidyl)-6-(4-cyano-3-fluorophenyl)-3-methyl-4-oxo-3-hydropyrimidin-5-yl]benzoic acid], the IC50 (in general, the midpoint of a concentration-inhibition curve) fell in the range of 100 to 1000 nM.

Regarding `CNC(=O)c1ccc(-c2c(-c3ccc(C#N)c(F)c3)nc(N3CCC(N)CC3)n(C)c2=O)cn1` [Example 50, 5-[2-(4-amino-piperidin-1-yl)-4-(4-cyano-3-fluoro-phenyl)-1-methyl-6-oxo-1,6-dihydro-pyrimidin-5-yl]-pyridine-2-carboxylic acid methylamide], the IC50 is below 100 nM. The same measure for `CCOc1ccc(-c2c(-c3ccc(C#N)c(F)c3)nc(N3CCC(N)CC3)n(C)c2=O)cn1` [Example 94, 4-[2-(4-aminopiperidin-1-yl)-5-(6-ethoxypyridin-3-yl)-1-methyl-6-oxopyrimidin-4-yl]-2-fluorobenzonitrile]: below 100 nM; for `CNC1CCN(c2nc(-c3ccc(C#N)c(F)c3)c(-c3ccc(OC)c(F)c3)c(=O)n2C)CC1` [Example 12, 2-fluoro-4-[5-(3-fluoro-4-methoxy-phenyl)-1-methyl-2-(4-methylamino-piperidin-1-yl)-6-oxo-1,6-dihydro-pyrimidin-4-yl]-benzonitrile]: below 100 nM. The same measure for `CNC1CCN(c2nc(-c3ccc(C#N)c(F)c3)c(-c3ccc(OC)nc3)c(=O)n2C)CC1` [Example 58, 2-fluoro-4-[5-(6-methoxy-pyridin-3-yl)-1-methyl-2-(4-methylamino-piperidin-1-yl)-6-oxo-1,6-dihydro-pyrimidin-4-yl]-benzonitrile]: below 100 nM; for `Cn1c(N2CCC(N)CC2)nc(-c2ccc(C#N)c(F)c2)c(-c2ccc(N)cc2)c1=O` [Example 89, 4-[5-(4-aminophenyl)-2-(4-aminopiperidin-1-yl)-1-methyl-6-oxopyrimidin-4-yl]-2-fluorobenzonitrile]: below 100 nM. The value for `Cn1c(N2CCC(N)CC2)nc(-c2ccc(C#N)c(F)c2)c(C#N)c1=O` [Example 121, 2-(4-amino-piperidin-1-yl)-4-(4-cyano-3-fluoro-phenyl)-1-methyl-6-oxo-1,6-dihydro-pyrimidine-5-carbonitrile] was 100 to 1000 nM; that for `COc1ccc(-c2c(-c3ccc(C#N)cc3)nc(NC[C@@H]3CCNC3)n(C)c2=O)cc1F` [Example 45, 4-{5-(3-fluoro-4-methoxy-phenyl)-1-methyl-6-oxo-2-[(3R)-(pyrrolidin-3-ylmethyl)-amino]-1,6-dihydro-pyrimidin-4-yl}-benzonitrile] was below 100 nM; that for `Cn1c(N2CCC(N)CC2)nc(-c2ccc(C#N)c(F)c2)c(-c2cc(F)cc(F)c2)c1=O` [Example 103, 4-[2-(4-aminopiperidin-1-yl)-5-(3,5-difluorophenyl)-1-methyl-6-oxopyrimidin-4-yl]-2-fluorobenzonitrile] was below 100 nM. Turning to `COc1ccc(-c2c(-c3ccc(C#N)cc3)nc(N3CCC(N)CC3)n(C)c2=O)cn1` [Example 3, 4-[2-(4-amino-piperidin-1-yl)-5-(6-methoxy-pyridin-3-yl)-1-methyl-6-oxo-1,6-dihydro-pyrimidin-4-yl]-benzonitrile], the IC50 was below 100 nM. The same measure for `Cn1c(N2CCC(N)CC2)nc(-c2ccc(C#N)c(F)c2)cc1=O` [Example 108, 4-[2-(4-aminopiperidin-1-yl)-1-methyl-6-oxopyrimidin-4-yl]-2-fluorobenzonitrile]: below 100 nM; for `Cn1c(N2CCC(N)CC2)nc(-c2ccc(F)cc2)c(-c2ccc3c(ccn3C)c2)c1=O` [Example 113, 2-(4-amino-piperidin-1-yl)-6-(4-fluoro-phenyl)-3-methyl-5-(1-methyl-1H-indol-5-yl)-3H-pyrimidin-4-one]: 100 to 1000 nM. The value for `Cn1c(N2CCC(N)CC2)nc(-c2ccc(C#N)c(F)c2)c(-c2ccc3[nH]ncc3c2)c1=O` [Example 88, 4-[2-(4-aminopiperidin-1-yl)-5-(1H-indazol-5-yl)-1-methyl-6-oxopyrimidin-4-yl]-2-fluorobenzonitrile] was below 100 nM; that for `COc1ccc(-c2c(-c3ccc(C#N)c(F)c3)nc(N3CCC[C@@H](N)C3)n(C)c2=O)cc1` [Example 30, 4-[2-((3R)-3-aminopiperidyl)-5-(4-methoxyphenyl)-1-methyl-6-oxohydropyrimidin-4-yl]-2-fluorobenzenecarbonitrile] was below 100 nM; that for `CCn1c(N2CCC(N)CC2)nc(-c2ccc(C#N)c(F)c2)cc1=O` [Example 13, 4-[2-(4-amino-piperidin-1-yl)-1-ethyl-6-oxo-1,6-dihydro-pyrimidin-4-yl]-2-fluoro-benzonitrile] was 100 to 1000 nM. The same measure for `COc1ccc(-c2c(-c3ccc(C#N)c(F)c3)nc(NC[C@@H]3CCNC3)n(C)c2=O)cc1` [Example 52, 2-luoro-4-{5-(4-methoxy-phenyl)-1-methyl-6-oxo-2-[(3R)-(pyrrolidin-3-ylmethyl)-amino]-1,6-dihydro-pyrimidin-4-yl}-benzonitrile]: below 100 nM. Molecule `N#Cc1ccc(-c2cc(=O)n(CC3CC3)c(N3CCC(N)CC3)n2)cc1F` [Example 109, 4-[2-(4-amino-piperidin-1-yl)-1-cyclopropylmethyl-6-oxo-1,6-dihydro-pyrimidin-4-yl]-2-fluoro-benzonitrile] showed an IC50 of 100 to 1000 nM. The value for `Cn1c(N2CCC(N)CC2)nc(-c2ccccc2)c(-c2ccc3c(ccn3C)c2)c1=O` [Example 114, 2-(4-amino-piperidin-1-yl)-3-methyl-5-(1-methyl-1H-indol-5-yl)-6-phenyl-3H-pyrimidin-4-one] was above 10000 nM; that for `CN(C)C1CCN(c2nc(-c3ccc(C#N)c(F)c3)c(-c3ccc4nn(C)cc4c3)c(=O)n2C)CC1` [Example 71, 4-[2-(4-dimethylamino-piperidin-1-yl)-1-methyl-5-(2-methyl-2H-indazol-5-yl)-6-oxo-1,6-dihydro-pyrimidin-4-yl]-2-fluoro-benzonitrile] was below 100 nM. The same measure for `CNc1ccc(-c2c(-c3ccc(C#N)c(F)c3)nc(N3CCC(N)CC3)n(C)c2=O)cc1` [Example 90, 4-[2-(4-aminopiperidin-1-yl)-1-methyl-5-[4-(methylamino)phenyl]-6-oxopyrimidin-4-yl]-2-fluorobenzonitrile]: below 100 nM; for `COc1ccc(-c2c(-c3ccc(C#N)c(F)c3)nc(N3CC[C@H](N)[C@H](F)C3)n(C)c2=O)cc1` [Example 79, 4-[2-((4S,3R)-4-amino-3-fluoro-piperidin-1-yl)-5-(4-methoxy-phenyl)-1-methyl-6-oxo-1,6-dihydro-pyrimidin-4-yl]-2-fluoro-benzonitrile]: below 100 nM. The same measure for `Cn1c(N2CCC(N)CC2)nc(-c2ccncc2)c(-c2ccc3c(ccn3C)c2)c1=O` [Example 116, 2-(4-amino-piperidin-1-yl)-3-methyl-5-(1-methyl-1H-indol-5-yl)-6-pyridin-4-yl-3H-pyrimidin-4-one]: 100 to 1000 nM; for `COc1ccc(-c2c(-c3ccc(C#N)c(F)c3)nc(N3CCC(N)CC3)n(C)c2=O)cc1` [Example 6, 4-[2-(4-amino-piperidin-1-yl)-5-(4-methoxy-phenyl)-1-methyl-6-oxo-1,6-dihydro-pyrimidin-4-yl]-2-fluoro-benzonitrile]: below 100 nM; for `CNC1CCN(c2nc(-c3ccc(C#N)c(F)c3)c(-c3ccc4c(cnn4C)c3)c(=O)n2C)CC1` [Example 87, 2-fluoro-4-[1-methyl-2-[4-(methylamino)piperidin-1-yl]-5-(1-methylindazol-5-yl)-6-oxopyrimidin-4-yl]benzonitrile]: below 100 nM.

With `Cn1c(N2CCC(N)CC2)nc(-c2ccc(C#N)c(F)c2)c(-c2ccc(F)cc2)c1=O` [Example 101, 4-[2-(4-aminopiperidin-1-yl)-5-(4-fluorophenyl)-1-methyl-6-oxopyrimidin-4-yl]-2-fluorobenzonitrile], the IC50 was below 100 nM.

Molecule `COc1ccc(-c2c(-c3ccc(C#N)c(F)c3)nc(N3CCC[C@@H](N)C3)n(C)c2=O)cc1F` [Example 25, 4-[2-((3R)-3-aminopiperidyl)-5-(3-fluoro-4-methoxyphenyl)-1-methyl-6-oxohydropyrimidin-4-yl]-2-fluorobenzenecarbonitrile] came in with an IC50 below 100 nM.

Take `CN(C)c1ncc(-c2c(-c3ccc(C#N)c(F)c3)nc(N3CCC(N(C)C)CC3)n(C)c2=O)cn1` [Example 81, 4-[2′-dimethylamino-2-(4-dimethylamino-piperidin-1-yl)-1-methyl-6-oxo-1,6-dihydro-[5,5′]bipyrimidinyl-4-yl]-2-fluoro-benzonitrile]: the half-maximal inhibitory concentration (IC50) was below 100 nM. As for `Cn1c(N2CCC(N)CC2)nc(-c2ccc(C#N)c(F)c2)c(-c2ccc3c(c2)CNC3=O)c1=O` [Example 42, 4-[2-(4-amino-piperidin-1-yl)-1-methyl-6-oxo-5-(1-oxo-2,3-dihydro-1H-isoindol-5-yl)-1,6-dihydro-pyrimidin-4-yl]-2-fluoro-benzonitrile], the half-inhibitory concentration (IC50) was below 100 nM. Take `COc1ccc(-c2c(-c3ccc(C#N)c(F)c3)nc(N3CC[C@@H](N)[C@@H](F)C3)n(C)c2=O)cc1` [Example 78, 4-[2-((4R,3S)-4-amino-3-fluoro-piperidin-1-yl)-5-(4-methoxy-phenyl)-1-methyl-6-oxo-1,6-dihydro-pyrimidin-4-yl]-2-fluoro-benzonitrile]: the 50% inhibitory concentration (IC50) is below 100 nM. On to `CCOc1ncc(-c2c(-c3ccc(C#N)c(F)c3)nc(N3CCC(N)CC3)n(C)c2=O)cc1F` [Example 93, 4-[2-(4-aminopiperidin-1-yl)-5-(6-ethoxy-5-fluoropyridin-3-yl)-1-methyl-6-oxopyrimidin-4-yl]-2-fluorobenzonitrile], for which the IC50 was below 100 nM. The same measure for `COc1ccc(-c2c(-c3ccc(C#N)c(F)c3)nc(N3CCC(C)(N)CC3)n(C)c2=O)cc1F` [Example 32, 4-[2-(4-amino-4-methyl-piperidin-1-yl)-5-(3-fluoro-4-methoxy-phenyl)-1-methyl-6-oxo-1,6-dihydro-pyrimidin-4-yl]-2-fluoro-benzonitrile]: below 100 nM.
